Experimental data as given in patent US7169891B2, “Human pellino polypeptides” (Immunex Corporation, priority 2000, dated 2007).

Legend:
Pellino-1 = assay: Effect of cell stimulation on Pellino-1 localization and cleavage in transfected COS-7 cells; assay type: cell-based, monkey; conditions: for Effect of growth factor incubation on Pellino-1 (cleavage and redistribution): Pellino-1-transfected cells, concentration not given
Procedure: This example describes the effect of stimulation of COS-7 cells transfected with an expression vector encoding FLAG-Pellino-1 with IL-1 or other molecules. Transfected cells are prepared substantially as described above. […] As Drosophila Pellino was identified by its ability to associate with Pelle, experiments in which Pellino is coexpressed with IRAK have been performed to determine if mammalian Pellino interacted with IRAK, the presumptive mammalian counterpart of Pelle.
To determine if the observed redistribution and proteolytic processing of Pellino-1 specifically required IRAK, Pellino-1-transfected cells were stimulated with agents that activate NF-kB by IRAK-independent pathways such as phorbol myristate acetate (PMA, 100 ng/ml), which is known to promote many of the same intracellular signals as IL-1, and TNF-alpha (20 ng/ml). TNF-alpha activates NF-kB through a mechanism involving the adaptor protein TRADD, the kinase RIP, and TRAF2, while PMA stimulates the activity of protein kinase C which is known to cross-talk with the NF-kB pathway. […] In both cases, 2 to 3 hours of exposure to the stimulus was required before significant Pellino cleavage was seen. The total amount of detectable Pellino-1 polypeptide (the sum of soluble and insoluble fractions) was increased in the presence of PMA or TNF-alpha, which presumably reflects a change in the net rates of Pellino-1 synthesis and/or degradation. […] EGF has been reported in some cells to activate NF-kB through the induction of IkB-alpha degradation.

[1] = system: NF-kB-dependent reporter gene; assay: NF-kB-dependent reporter gene (luciferase) assay in transfected COS cells; assay type: cell-based, monkey
Source text: (§1) The murine Pellino-1 coding sequence DNA was fused, in frame at the 3′ end, to DNA encoding the FLAG epitope, followed by an in-frame stop codon. This construct was cloned into the mammalian expression vector pDC304 (identical to pDC302, described in U.S. Pat. No. 5,599,905, issued Feb. 4, 1997, except that the early splice region, consisting of splice donor and acceptor sites of the SV40 viral element, has been removed); and transfected into an IL-1-responsive line of COS-7 cells by the DEAE-dextran method.
In order to assay the effect of the Pellino-1-FLAG polypeptide and other forms of Pellino polypeptides on reporter gene activity, a method essentially as described in Born et al., 1998, J. Biol. Cheni. 273: 29445–29450 (which is incorporated by reference herein) can be used. As one example of this method, Cos7 cells were transiently transfected by the DEAE-dextran method as described (Cosman et al., 1984, Nature 312: 768–771, which is incorporated by reference herein), using 150 ng of the Pellino polypeptide expression construct and 700 ng of the reporter plasmid per 45,000 cells. Two days post-transfection, cells were stimulated with 10 ng/ml IL-1 or 40 ng/ml IL-18 (PeproTech, Inc.) for 4 hours. Cells were lysed and luciferase activity assessed using Reporter Lysis Buffer and Luciferase Assay Reagent (Promega Corp.). IL-8 promoter-reporter and NFkB-dependent reporter constructs may be used as reporter plasmids. Alternatively, the effect of Pellino polypeptide expression may be assayed in COS-1 cells. In an alternative preferred method, COS7 cells were grown in 12-well dishes as described above. The cells were transiently transfected with Pellino test plasmid, 50 ng of reporter plasmid DNA, and empty vector, as required, to a total of 1 micrograms of total DNA per well. After 24 hours, stimulating agents were added in a small amount (less than 0.5% final volume) of medium or dimethyl sulfoxide, and the cells were re-incubated for 5 hours. Cells were lysed in luciferase Reporter Lysis Buffer (Promega, Madison Wis., 0.25 ml per well) and luciferase activity was measured in a EG & G/Berthold luminometer after addition of Luciferase Assay Reagent (Promega) according to the supplier's instructions. All results were normalized to total protein content of the lysates as measured using the micro-BCA assay (Pierce, Rockford, Ill).

[2] = system: Jun N-terminal kinase, p38 kinase, and ERK signaling; assay: Jun N-terminal kinase, p38 kinase and ERK signaling mediated by IL-1; assay type: cell-based
[3] = system: IL-8 promoter-reporter gene; assay: IL-8 promoter-reporter gene assay in transfected COS cells; assay type: cell-based, monkey; conditions: COS-1 cells; presence and absence of TNF-alpha; compared to vector-only control
Source text: as §1
In order to assay the effect of the Pellino-1-FLAG polypeptide and other forms of Pellino polypeptides on reporter gene activity, a method essentially as described in Born et al., 1998, J. Biol. Cheni. 273: 29445–29450 (which is incorporated by reference herein) can be used. […] Cells were lysed and luciferase activity assessed using Reporter Lysis Buffer and Luciferase Assay Reagent (Promega Corp.). […] Cells were lysed in luciferase Reporter Lysis Buffer (Promega, Madison Wis., 0.25 ml per well) and luciferase activity was measured in a EG & G/Berthold luminometer after addition of Luciferase Assay Reagent (Promega) according to the supplier's instructions. All results were normalized to total protein content of the lysates as measured using the micro-BCA assay (Pierce, Rockford, Ill).

TNF-alpha
Time after induction at which cleavage and relocation of Pellino-1 began (Pellino-1; TNF-alpha 20 ng/ml, time-course experiments): about three

basic fibroblast growth factor: growth factor
Effect of growth factor incubation on Pellino-1 (cleavage and redistribution) (Pellino-1): little or no effect

epidermal growth factor
Effect of growth factor incubation on Pellino-1 (cleavage and redistribution) (Pellino-1): very weakly active

platelet-derived growth factor
Effect of growth factor incubation on Pellino-1 (cleavage and redistribution) (Pellino-1): little or no effect

transforming growth factor-beta
Effect of growth factor incubation on Pellino-1 (cleavage and redistribution) (Pellino-1): little or no effect

B1: wild-type-FLAG: unaltered murine Pellino-1 (SEQ ID NO:2) fused to the FLAG epitope (protein, listed as Mus musculus)
chain: MFSPDQENHPSKAPVKYGELIVLGYNGSLPNGDRGRRKSRFALFKRPKANGVKPSTVHIACTPQAAKAISNKDQHSISYTLSRAQTVVVEYTHDSNTDMFQIGRSTESPIDFVVTDTVPGSQSNSDTQSVQSTISRFACRIICERSPPFTARIYAAGFDSSKNIFLGEKAAKWKTSDGQMDGLTTNGVLVMHPRNGFTEDSKPGIWREISVCGNVFSLRETRSAQQRGKMVEIETNQLQDGSLIDLCGATLLWRTAEGLSHTPTVKHLEALRQEINAARPQCPVGFNTLAFPSMKRKDVVDEKQPWVYLNCGHVHGYHNWGNKEERDGKDRECPMCRSVGPYVPLWLGCEAGFYVDAGPPTHAFSPCGHVCSEKTTAYWSQIPLPHGTHTFHAACPFCAHQLAGEQGYIRLIFQGPLD
modifications: FLAG tag
Effect on Reporter Gene ([1]; NF-kB-dependent reporter gene activity, form of murine Pellino-1 expressed in COS cells): Stimulatory
IL-1-induced NFkB-dependent reporter gene activity ([1]; preliminary experiment, COS-7 cells): partially inhibit
Jun N-terminal kinase, p38 kinase, and ERK signaling mediated by IL-1 [2]: moderately augmented

B2: wild-type Pellino-1: wild-type Pellino-1 polypeptide expressed in COS cells; murine sequence SEQ ID NO:2 (protein, listed as Mus musculus)
chain: B1 chain
NFkB-dependent reporter gene activity ([1]; COS cells transfected with high concentrations of expressing construct): inhibitory effect
IL-8 promoter-reporter gene activity [3]: stimulates
